# Results as given in ChEMBL document CHEMBL1781889, “A chemometric study of the 5-HT(1A) receptor affinities presented by arylpiperazine compounds” (Eur J Med Chem, 2008).
# pKi: −log10 of the molar value.
# Molecular target: T1, 5-hydroxytryptamine receptor 1A (Homo sapiens, UniProt P08908)
# T1 sequence (P08908 whole entry): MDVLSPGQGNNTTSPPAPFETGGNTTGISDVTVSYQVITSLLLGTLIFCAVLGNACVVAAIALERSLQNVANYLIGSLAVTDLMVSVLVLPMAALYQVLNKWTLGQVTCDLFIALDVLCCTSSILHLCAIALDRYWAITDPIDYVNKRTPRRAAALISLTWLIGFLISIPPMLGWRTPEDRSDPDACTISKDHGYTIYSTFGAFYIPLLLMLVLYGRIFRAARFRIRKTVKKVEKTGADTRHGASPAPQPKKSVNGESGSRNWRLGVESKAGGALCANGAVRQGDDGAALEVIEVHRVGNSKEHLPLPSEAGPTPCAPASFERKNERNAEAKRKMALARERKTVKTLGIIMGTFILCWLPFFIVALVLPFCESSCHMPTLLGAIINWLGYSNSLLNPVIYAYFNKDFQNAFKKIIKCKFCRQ
# Assay: Binding affinity to 5HT1A receptor
row,Compound,pKi
1,COc1ccccc1N1CCN(CCC(=O)c2ccc3ccccc3c2)CC1,6.60
2,Cc1cc(C(=O)CCN2CCN(c3ccccc3O)CC2)c(C)s1,8.12
3,COc1ccccc1N1CCN(CC/C(=N\O)c2ccsc2)CC1,8.19
4,COc1ccccc1N1CCN(CCC(=O)c2ccsc2)CC1,7.80
5,O=C(CCN1CCN(c2ccccc2O)CC1)c1csc2ccccc12,6.96
6,Cc1cc(C(O)CCN2CCN(c3ccccc3O)CC2)c(C)s1 (stereo unspecified),7.04
7,O=C(CCN1CCN(c2ncccn2)CC1)c1ccccc1,6.92
8,COc1ccccc1N1CCN(CCC(=O)c2ccc(-c3ccccc3)cc2)CC1,5.44
9,COc1ccccc1N1CCN(CCC(Oc2ccc(C(F)(F)F)cc2)c2ccccc2)CC1 (stereo unspecified),6.35
10,O=C(CCN1CCN(c2ccccn2)CC1)c1ccccc1,7.30
11,O=C(CCN1CCN(c2cccc3ccccc23)CC1)c1ccsc1,7.46
12,COc1ccccc1N1CCN(CCC(=O)c2ccc([N+](=O)[O-])s2)CC1,6.47
13,COc1ccccc1N1CCN(CC/C(=N\O)c2ccccc2)CC1,7.76
14,O=C(CCN1CCN(c2ccccc2Cl)CC1)c1ccsc1,6.70
15,COc1cc(F)ccc1N1CCN(CCC(=O)c2csc3ccccc23)CC1,6.30
16,COc1ccccc1N1CCN(CCC(Oc2ccc(C(F)(F)F)cc2)c2ccsc2)CC1 (stereo unspecified),6.59
17,COc1ccccc1N1CCN(CCC(=O)c2cc(C)sc2C)CC1,8.30
18,COc1ccccc1N1CCN(CCC(=O)c2csc3ccccc23)CC1,7.36
19,FC(F)(F)c1ccc(OC(CCN2CCN(c3ncccn3)CC2)c2ccccc2)cc1 (stereo unspecified),5.80
20,COc1ccccc1N1CCN(CCC(Oc2ccc(C(F)(F)F)cc2)c2ccc(-c3ccccc3)cc2)CC1 (stereo unspecified),5.30
21,O=C(CCN1CCN(c2cccc3ccccc23)CC1)c1csc2ccccc12,7.00
22,COc1ccccc1N1CCN(CCC(=O)c2ccc(C)s2)CC1,7.76
23,COc1ccccc1N1CCN(CCC(O)c2cc(C)sc2C)CC1 (stereo unspecified),7.92
24,COc1ccccc1N1CCN(CCC(=O)c2cccs2)CC1,8.00
25,COc1ccc(C(CCN2CCN(c3ccccc3OC)CC2)Oc2ccc(C(F)(F)F)cc2)cc1 (stereo unspecified),6.00
26,COc1cc(Cl)ccc1N1CCN(CCC(=O)c2csc3ccccc23)CC1,6.30
27,COc1cc(F)ccc1N1CCN(CCC(O)c2csc3ccccc23)CC1 (stereo unspecified),6.30
28,Cc1cc(C(=O)CCN2CCN(c3cccc4ccccc34)CC2)c(C)s1,7.00

# Second part, the compound after the results:
row,pKi,Compound
1,5.84,Cc1ccc(OC(CCN2CCN(c3ccc(Cl)cc3)CC2)c2ccccc2)cc1 (stereo unspecified)
2,5.30,OC(CCN1CCN(c2ccc(Cl)cc2)CC1)c1cccs1 (stereo unspecified)
3,6.74,O=C(CCN1CCN(c2ccccc2Cl)CC1)c1ccccc1
4,5.30,COc1ccc(N2CCN(CCC(Oc3ccc(C(F)(F)F)cc3)c3ccccc3)CC2)cc1 (stereo unspecified)
5,5.30,O=C(CCN1CCN(c2ccc(Cl)cc2)CC1)c1cccs1
6,6.81,OC(CCN1CCN(c2ccccn2)CC1)c1ccccc1 (stereo unspecified)
7,5.30,OC(CCN1CCN(c2ccc(Cl)cc2)CC1)c1ccc2ccccc2c1 (stereo unspecified)
8,5.30,O=C(CCN1CCN(c2ccc(Cl)cc2)CC1)c1ccc2ccccc2c1
9,6.49,COc1ccc(C(O)CCN2CCN(c3ccccc3OC)CC2)cc1 (stereo unspecified)
10,7.32,COc1ccccc1N1CCN(CCC(O)c2ccccc2)CC1 (stereo unspecified)
11,6.44,COc1cc(Cl)ccc1N1CCN(CCC(O)c2csc3ccccc23)CC1 (stereo unspecified)
12,5.30,FC(F)(F)c1ccc(OC(CCN2CCN(c3ccccc3Cl)CC2)c2ccccc2)cc1 (stereo unspecified)
13,6.94,OC(CCN1CCN(c2ccccc2Cl)CC1)c1ccccc1 (stereo unspecified)
14,6.26,Clc1ccc(N2CCN(CCC(Oc3ccc4c(c3)OCO4)c3ccccc3)CC2)cc1 (stereo unspecified)
15,5.30,Fc1ccc(N2CCN(CCC(Oc3ccc(C(F)(F)F)cc3)c3ccccc3)CC2)cc1 (stereo unspecified)
16,6.70,OC(CCN1CCN(c2ccccc2Cl)CC1)c1ccsc1 (stereo unspecified)
17,5.30,COc1ccc(N2CCN(CCC(=O)c3ccccc3)CC2)cc1

row,pKi,Compound
1,7.74,Oc1ccccc1N1CCN(CCC(O)c2csc3ccccc23)CC1 (stereo unspecified)
2,7.72,COc1ccccc1N1CCN(CCC(O)c2cccs2)CC1 (stereo unspecified)
3,7.70,COc1ccccc1N1CCN(CCC(O)c2csc3ccccc23)CC1 (stereo unspecified)
4,5.30,O=[N+]([O-])c1ccc(N2CCN(CCC(O)c3ccccc3)CC2)cc1 (stereo unspecified)
5,5.30,O=C(CCN1CCN(c2ccc(Cl)cc2)CC1)c1csc2ccccc12
6,6.38,COc1ccccc1N1CCN(CCC(O)c2ccc3ccccc3c2)CC1 (stereo unspecified)
7,6.07,COc1ccc(N2CCN(CCC(O)c3ccc(-c4ccccc4)cc3)CC2)cc1 (stereo unspecified)
8,6.10,O=C(CCN1CCN(c2ccc(F)cc2)CC1)c1ccccc1
9,6.10,OC(CCN1CCN(c2ccc(Cl)cc2)CC1)c1ccccc1 (stereo unspecified)
10,7.47,COc1ccccc1N1CCN(CCC(O)c2ccc(C)s2)CC1 (stereo unspecified)
11,5.30,OC(CCN1CCN(c2ccc(Cl)cc2)CC1)c1csc2ccccc12 (stereo unspecified)
12,7.30,COc1ccccc1N1CCN(CCC(O)c2ccsc2)CC1 (stereo unspecified)
13,5.30,O=C(CCN1CCN(c2ccc([N+](=O)[O-])cc2)CC1)c1ccccc1
14,6.10,O=C(CCN1CCN(c2ccc(Cl)cc2)CC1)c1ccccc1
15,5.30,O=[N+]([O-])c1ccc(N2CCN(CCC(Oc3ccc(C(F)(F)F)cc3)c3ccccc3)CC2)cc1 (stereo unspecified)
16,5.30,COc1ccc(N2CCN(CCC(O)c3ccccc3)CC2)cc1 (stereo unspecified)
